Marks after values point to notes of the source that are not given here.
Assays:
[1] = Static model DDI risk evaluation (FDA R values), inhibitor concentrations; parameters: species or system human; conditions: for I in,max,u maximum unbound plasma inhibitor concentration at liver inlet: 1000 mg oral dose, Fa×Fg 1, ka 0.1/min; for Igut intestinal luminal concentration: dose/250 mL
Protocol: To evaluate potential clinical DDIs for transporters, the FDA R values were calculated according to the FDA In Vitro Drug Interaction Studies guidance. Equation (3) was used to estimate the maximum unbound plasma inhibitor concentration at liver inlet (I in,max) for OATPs, where f u,p is the unbound fraction in plasma, C max is the maximal total concentration in plasma, F a is the fraction absorbed after oral administration, F g is the fraction available after intestinal metabolism, k a is the first‐order absorption rate constant in vivo, dose is the oral dose, Q h is the hepatic blood flow, and R B is the blood‐to‐plasma concentration ratio. (3) Iin,max,u=fu,p×Cmax+Fa×Fg×ka×Dose/Qh×RB
Hepatic blood flow (Q h) was set to 1.620 L/min [31].

P-gp = target: T1, P-gp (Homo sapiens, UniProt P08183); assay: P-gp inhibition, N-methyl-quinidine transport in HEK293 membrane vesicles; type: biochemical; conditions: for Calculated R-value P-gp: R = I gut/IC50, FDA cut-off ≥ 10
T1 construct: made in house; host or cells: membrane vesicles from HEK293 cells expressing the transporter
T1 sequence (P08183 whole entry): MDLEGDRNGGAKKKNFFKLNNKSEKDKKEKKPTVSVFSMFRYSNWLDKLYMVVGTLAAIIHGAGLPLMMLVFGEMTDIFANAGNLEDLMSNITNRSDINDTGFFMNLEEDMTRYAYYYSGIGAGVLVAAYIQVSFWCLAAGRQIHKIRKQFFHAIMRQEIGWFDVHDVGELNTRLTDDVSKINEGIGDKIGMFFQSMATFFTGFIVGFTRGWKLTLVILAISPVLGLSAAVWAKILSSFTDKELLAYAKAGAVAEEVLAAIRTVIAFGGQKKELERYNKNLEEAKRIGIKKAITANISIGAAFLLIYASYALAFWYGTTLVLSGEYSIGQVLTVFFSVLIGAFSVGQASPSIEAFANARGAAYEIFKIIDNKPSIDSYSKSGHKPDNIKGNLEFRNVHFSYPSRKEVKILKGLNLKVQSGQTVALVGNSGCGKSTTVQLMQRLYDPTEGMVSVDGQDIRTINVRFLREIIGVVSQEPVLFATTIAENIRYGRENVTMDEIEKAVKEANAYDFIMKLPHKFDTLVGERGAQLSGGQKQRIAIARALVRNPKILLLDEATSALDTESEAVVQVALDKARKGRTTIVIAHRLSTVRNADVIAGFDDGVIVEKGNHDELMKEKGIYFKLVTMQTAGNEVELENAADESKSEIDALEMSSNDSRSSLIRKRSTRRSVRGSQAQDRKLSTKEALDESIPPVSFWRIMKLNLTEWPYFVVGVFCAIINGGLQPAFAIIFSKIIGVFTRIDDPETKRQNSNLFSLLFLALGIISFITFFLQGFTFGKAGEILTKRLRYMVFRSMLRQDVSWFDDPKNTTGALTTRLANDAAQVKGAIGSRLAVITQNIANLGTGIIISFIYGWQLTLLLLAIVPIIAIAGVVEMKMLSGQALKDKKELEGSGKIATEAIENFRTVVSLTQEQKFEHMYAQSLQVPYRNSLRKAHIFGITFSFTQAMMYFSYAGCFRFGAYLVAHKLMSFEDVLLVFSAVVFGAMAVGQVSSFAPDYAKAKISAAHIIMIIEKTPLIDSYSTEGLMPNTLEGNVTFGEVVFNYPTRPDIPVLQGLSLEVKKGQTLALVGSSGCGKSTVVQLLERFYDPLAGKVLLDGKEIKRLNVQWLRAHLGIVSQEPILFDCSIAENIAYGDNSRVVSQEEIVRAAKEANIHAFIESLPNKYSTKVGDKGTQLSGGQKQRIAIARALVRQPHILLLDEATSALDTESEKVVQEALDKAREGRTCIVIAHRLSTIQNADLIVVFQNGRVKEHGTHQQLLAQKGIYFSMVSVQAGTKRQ
Protocol: Membrane vesicles, 5 μL (7.5 μg of total protein), prepared as previously reported, were aliquoted to wells of a conical‐shaped 96‐well plate. The plate was incubated for 10 min at +37°C before the initiation of transport by adding 25 μL of TS‐buffer (10 mM Tris, 250 mM sucrose, pH adjusted to 7.4 with HEPES) containing magnesium chloride (10 mM final in the reaction), adenosine triphosphate (ATP) or adenosine monophosphate (AMP), 4 mM final in the reaction, and the transporter substrate and inhibitor. Each experiment included triplicate samples for both ATP and AMP samples. The concentrations of rosuvastatin and N‐methyl‐quinidine were 1 μM in the BCRP and P‐gp vesicle inhibition assays, respectively. The transport reaction times were 1 and 2 min for BCRP and P‐gp, respectively. […] The transport reactions were quenched by adding 200 μL of cold TS‐buffer to each well and transferring the samples to a 96‐multiwell 1.0 μm glass fiber filter plate (Merck Millipore, Darmstadt, Germany) kept under vacuum. Wells were further washed four times with cold TS‐buffer, after which the plate was dried under vacuum. The compounds were eluted from the plate by applying 100 μL of 75% methanol containing 0.1% formic acid to each well and incubating at 250 RPM for 30 min before centrifuging the samples to an analysis plate at 2800 g for 2 min. For the rosuvastatin samples, the elution solvent contained rosuvastin‐d6 as the internal standard.
For the inhibition data analysis, the average of measured concentrations in the control cells was subtracted from the average of measured concentrations in transporter‐expressing cells for each inhibitor concentration and then normalized to the vehicle sample that represents 100% transport activity. Equation (1) was fit to the inhibition data. In Equation (1), Inhibition represents the percent inhibition of transporter‐mediated uptake at an inhibitor concentration of I and IC50 is the half‐maximal inhibitory concentration. (1) Inhibition=100%−100%/1+10^logIC50−logI

I in,max,u maximum unbound plasma inhibitor concentration at liver inlet [1]	I max,u maximal unbound plasma concentration at steady state ([1]; C max × f u)	Igut intestinal luminal concentration [1]	Calculated R-value P-gp (P-gp)	inhibition of P-gp transport at the highest concentration (P-gp; highest concentration)	IC50 (P-gp; 1 μM N-methyl-quinidine, 2 min, membrane vesicles)	reduction of P-gp activity (P-gp; highest tested concentration of 2100 μM)	SMILES
5.51 µM	1.34 µM	8505 µM	33 ^b	almost completely inhibited	–	–	Cc1onc(-c2c(Cl)cccc2Cl)c1C(=O)N[C@@H]1C(=O)N2[C@@H]1SC(C)(C)[C@@H]2C(=O)O [Dicloxacillin]
15.7 µM	–	8813 µM	11 ^b	–	≥ 833 µM	65%	Cc1onc(-c2c(F)cccc2Cl)c1C(=O)N[C@@H]1C(=O)N2[C@@H]1SC(C)(C)[C@@H]2C(=O)O [Flucloxacillin]
